Results taken from PMC3210414 (Nature structural & molecular biology, 2011).

Tests used:
EF-Tu (T. thermophilus) [1] = target: EF-Tu (T. thermophilus) (Thermus thermophilus, UniProt Q5SHN6); test: nitrocellulose filter binding with [3H]GDP
EF-Tu (T. thermophilus) [2] = target: EF-Tu (T. thermophilus) (Thermus thermophilus, UniProt Q5SHN6, T395C); test: nitrocellulose filter binding with [3H]GDP

Kd (EF-Tu (T. thermophilus) [1]): 7 nM
Kd (EF-Tu (T. thermophilus) [2]): 11 nM
Structure (SMILES): Nc1nc2c(ncn2[C@@H]2O[C@H](COP(=O)(O)OP(=O)(O)O)[C@@H](O)[C@H]2O)c(=O)[nH]1 [GDP]
